In patent US9259467B2, “Mammalian receptors as targets for antibody and active vaccination therapy against mold infections” (Los Angeles Biomedical Research Institute at Harbor-UCLA …, priority 2009, dated 2016):

Assays:
Type in all cases: cell-based, human
[1] = tested on: R. oryzae germlings on endothelial cells; assay: Differential fluorescence assay of adherence and endocytosis of R. oryzae germlings by endothelial cells; settings: for Reduction of endothelial cell endocytosis of R. oryzae: phenanthroline 60 μM for 16 hours, cytochalasin D 200 nM
Method: The number of organisms endocytosed by endothelial cells or CHO cells was determined using a modification of a previously described differential fluorescence assay (Ibrahim et al., Infect Immun. 63(11):4368-4374 (1995)). Briefly, 12-mm glass coverslips in a 24-well cell culture plate were coated with fibronectin for at least 4 hours and seeded with endothelial or CHO cells until confluency. After washing twice with prewarmed HBSS, the cells were then infected with 10^5 cells of R. oryzae in RPMI 1640 medium that had been germinated for 1 hour. Following incubation for 3 hours, the cells were fixed in 3% paraformaldehyde and were stained for 1 hour with 1% Uvitex (a gift from Jay Isharani, Ciba-Geigy, Greensboro, N.C., USA), which specifically binds to the chitin of the fungal cell wall. After washing 3 times with PBS, the coverslips were mounted on a glass slide with a drop of ProLong Gold antifade reagent and sealed with nail polish. The total number of cell-associated organisms (i.e., germlings adhering to monolayer) was determined by phase-contrast microscopy. The same field was examined by epifluorescence microscopy, and the number of uninternalized germlings (which were brightly fluorescent) was determined. The number of endocytosed organisms was calculated by subtracting the number of fluorescent organisms from the total number of visible organisms. At least 400 organisms were counted in 20-40 different fields on each slide. Two slides per arm were used for each experiment, and the experiment was performed in triplicate on different days. […]
To determine the effects of chelating endothelial cell iron on interactions with R. oryzae, endothelial cells were incubated with different concentrations of phenanthroline for 16 hours. To prevent chelation of the radioisotope, ^51Cr was added to endothelial cells 24 hours prior to the addition of phenanthroline (Fratti et al., Infect Immun. 66(1):191-196 (1998)). To confirm that the effects of phenanthroline on R. oryzae-induced endocytosis by and damage of endothelial cells were due to chelation of endothelial cell iron, exogenous iron in the form of hemin was added to endothelial cells at a final concentration of 20 μM, 2 hours before phenanthroline (Fratti et al., supra). As a positive control for prevention of endocytosis, the microfilament disruptant cytochalasin D (Sigma-Aldrich) was added at a concentration of 200 nM simultaneously with R. oryzae germlings, and endocytosis was determined as above (Ibrahim et al., Infect Immun. 63(11):4368-4374 (1995)). […]

[2] = tested on: R. oryzae germlings on endothelial cells; assay: 51Cr release assay of R. oryzae-induced endothelial cell damage
Method: R. oryzae-induced endothelial or CHO cell damage was quantified by using a chromium (^51Cr) release assay (Ibrahim et al., J Infect Dis. 198(7):1083-1090 (2008)). Briefly, endothelial cells or CHO cells grown in 96-well tissue culture plates containing detachable wells were incubated with 1 μCi per well of Na2^51CrO4 (ICN) in M-199 medium (for endothelial cells) or Alpha minimum Eagle's medium (for CHO cells) for 16 hours.
On the day of the experiment, the unincorporated ^51Cr was aspirated, and the wells were washed twice with warmed HBSS (Irvine Scientific). Cells were infected with fungal germlings (1.5×10^5 germinated for 1 hour) suspended in 150 μl RPMI 1640 medium (Irvine Scientific) supplemented with glutamine. Spontaneous ^51Cr release was determined by incubating endothelial or CHO cells in RPMI 1640 medium supplemented with glutamine without R. oryzae. […] The amount of ^51Cr in the aspirate and the detached well was determined by gamma counting. […] After the data were corrected for variations in the amount of tracer incorporated in each well, the percentage of specific endothelial cell release of ^51Cr was calculated by the following formula: [(experimental release×2)−(spontaneous release×2)]/[total incorporation−(spontaneous release×2)]. […]

[3] = tested on: GRP78 transcript; assay: Quantification of GRP78 expression in endothelial cells by real time RT-PCR; settings: for GRP78 expression: data not shown
Method: The transductions were performed according to the manufacturer's protocol. Briefly, 1.6×10^4 endothelial cells were seeded into 96-well plate and incubated for about 20 hours at 37° C. in a 5% CO2 incubator. Cells were infected with lentiviral particles at an MOI of 20 in the presence of 8 μg/ml polybrene (Sigma-Aldrich) overnight. The transduced cells were incubated in fresh M199 medium for 4 more days. Puromycin at 0.2 μg/ml was added to select for puromycin-resistant cell pools, which usually took approximately 10 days of incubating at 37° C. in 5% CO^2. The puromycin-resistant cells were passaged until an appropriate amount of cells was obtained for endocytosis or damage assays as above. Reduction of GRP78 expression was confirmed by using real time RT-PCR (see below).
For quantification of GRP78 expression in endothelial or CHO cells, real time RT-PCR was carried out using a Power SYBR Green Cells-to-CT kit (Applied Biosystems) to extract RNA from 2×10^4 cells. Primers to amplify GRP78 from endothelial cells and CHO cells were 5′-[…]-3′ (SEQ ID NO: 3) and 5′-[…]-3′ (SEQ ID NO: 4). Primers 5′-ACCATCTTCCAGGAGCGAG-3′ (SEQ ID NO: 5) and 5′-TAAGCAGTTGGTGGTGCAG-3′ (SEQ ID NO: 6) were used to amplify the housekeeping gene GAPDH, which was used as a control.
To study the effect of acidosis, endothelial cells exposed to different pHs, ranging from 6.8 to 7.4, were grown in MEM buffered with HEPES for 5 hours in the presence or absence of phenanthroline. Next, endothelial cells were washed twice with cold PBS, and GRP78 total expression was quantified by real-time RT-PCR. […] To study the effect of hyperosmolarity and statins on GRP78 expression, endothelial cells in MEM were incubated with 1, 4, or 8 mg/ml mannitol or 5, 20, or 40 μg/ml lovastatin for 20 hours. […] GRP78 expression, endocytosis, and damage assays were conducted as above.

[4] = tested on: GRP78; assay: Cell surface expression of GRP78 on endothelial cells by FACS; settings: high iron levels (0, 15, or 50 μM FeCl3 tested); flow cytometry
Method: Cell surface expression of GRP78 on endothelial cells exposed to varying concentrations of FeCl3 was quantified using FACS analysis. Briefly, endothelial cells grown in 25-cm flasks were dissociated using 1.5 ml enzyme-free dissociation buffer (Invitrogen). Cells were blocked with 50% goat serum, then stained with monoclonal anti-GRP78 Ab (BD Biosciences) at 1:100 for 1 hour. Endothelial cells were counterstained with ALEXA FLUOR 488-labeled anti-mouse IgG at 1:100 for 1 hour. Endothelial cells exposed to a similar concentration of FeCl3 or glucose and stained with an isotype matching control IgG (BD Biosciences) were used as negative control. A FACSCaliber (BD) instrument equipped with an argon laser emitting at 488 nm was used for flow cytometric analysis. Fluorescence data were collected with logarithmic amplifiers. The population percent fluorescence of 5×10^3 events was calculated using CellQuest software (BD).

[5] = 15 or 50 μM FeCl3, vs no exogenous FeCl3

[Cl][Fe]([Cl])[Cl] [FeCl3]
Enhancement of R. oryzae-induced endocytosis [1, 5]: 80%
Enhancement of R. oryzae-induced endothelial cell damage [2, 5]: 80%
Increase in endothelial cell GRP78 expression ([3]; FeCl3 at iron concentrations of DKA sera, 5 hours, vs no iron): ≤ 12 fold
Increase of surface expression of GRP78 protein [4]: 150%

C=C1[C@@H](C)[C@H]2[C@H](Cc3ccccc3)NC(=O)[C@]23[C@H](OC(C)=O)/C=C/[C@@](C)(O)C(=O)[C@@H](C)C/C=C/[C@H]3[C@@H]1O [cytochalasin D]
Reduction of endothelial cell endocytosis of R. oryzae [1]: approximately 70%

CC[C@H](C)C(=O)O[C@H]1C[C@@H](C)C=C2C=C[C@H](C)[C@H](CC[C@@H]3C[C@@H](O)CC(=O)O3)[C@H]21 [lovastatin]
GRP78 expression ([3]; lovastatin 5, 20, or 40 μg/ml for 20 hours): No evidence of alterations in expression

OC[C@@H](O)[C@@H](O)[C@H](O)[C@H](O)CO [mannitol]
GRP78 expression ([3]; mannitol 1, 4, and 8 mg/ml for 20 hours): No change in GRP78 expression

c1cnc2c(c1)ccc1cccnc12 [phenanthroline]
Reduction of endothelial cell endocytosis of R. oryzae [1]: approximately 70%
R. oryzae-induced endothelial cell damage ([2]; varying concentrations of phenanthroline for 16 h, removed before assay): prevented R. oryzae-induced endothelial cell damage in a concentration-dependent manner
Endothelial cell GRP78 expression in the setting of acidosis ([3]; pH 6.8 to 7.4, 5 hours, with phenanthroline): reversed GRP78 expression back to normal levels

hemin [exogenous iron]
Effect on the inhibition of endocytosis caused by the iron chelator phenanthroline ([1]; hemin 20 μM added 2 hours before phenanthroline): completely reversed the inhibition of endocytosis
